Experimental data: PubChem BioAssay (NCI)
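Tested at 5 concentrations; 48 h exposure; 96-well plates; endpoints linearly interpolated, else capped at highest concentration. GI50 marks 50% less growth. TGI: total growth inhibition.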

Experiments:
Assay in all cases: growth of human tumour cells (NCI), 48 h
[1] = test system: 786-0 renal
[2] = test system: A498 renal
[3] = test system: A549 NSCLC
[4] = test system: ACHN renal
[5] = test system: BT-549 breast
[6] = test system: CAKI-1 renal
[7] = test system: CCRF-CEM leukemia
[8] = test system: COLO 205 colon
[9] = test system: DU-145 prostate
[10] = test system: EKVX NSCLC
[11] = test system: HCC-2998 colon
[12] = test system: HCT-116 colon
[13] = test system: HCT-15 colon
[14] = test system: HOP-92 NSCLC
[15] = test system: HS 578T breast
[16] = test system: HT29 colon
[17] = test system: IGROV1 ovarian
[18] = test system: K-562 leukemia
[19] = test system: KM12 colon
[20] = test system: LOX IMVI melanoma
[21] = test system: M14 melanoma
[22] = test system: MALME-3M melanoma
[23] = test system: MCF7 breast
[24] = test system: MDA-MB-231 breast
[25] = test system: MDA-MB-435
[26] = test system: MOLT-4 leukemia
[27] = test system: NCI-H226 lung
[28] = test system: NCI-H23 lung
[29] = test system: NCI-H460 lung
[30] = test system: NCI-H522 lung
[31] = test system: NCI/ADR-RES ovarian
[32] = test system: OVCAR-3 ovarian
[33] = test system: OVCAR-4 ovarian
[34] = test system: OVCAR-5 ovarian
[35] = test system: OVCAR-8 ovarian
[36] = test system: PC-3 prostate
[37] = test system: RPMI-8226 leukemia
[38] = test system: RXF 393 renal
[39] = test system: SF-268 CNS
[40] = test system: SF-295 CNS
[41] = test system: SF-539 CNS
[42] = test system: SK-MEL-2 melanoma
[43] = test system: SK-MEL-28 melanoma
[44] = test system: SK-MEL-5 melanoma
[45] = test system: SN12C renal
[46] = test system: SNB-19 CNS
[47] = test system: SNB-75 CNS
[48] = test system: SR leukemia
[49] = test system: SW-620 colon
[50] = test system: T-47D breast
[51] = test system: TK-10 renal
[52] = test system: U251 CNS
[53] = test system: UACC-257 melanoma
[54] = test system: UACC-62 melanoma
[55] = test system: UO-31 renal

`COC1C(O)C(CO)OC(OC2C(O)COC(OC3C(C)OC(OC4C(O[C@H]5CC[C@@]6(C)C(CC=C7[C@H]6CCC68C(=O)O[C@@](C)(CCCC(C)C)[C@H]6[C@@H](OC(C)=O)C[C@@]78C)C5(C)C)OCC(OS(=O)(=O)O)C4O)C(OC4OCC(O)C(O)C4O)C3O)C2O)C1O` (some centres undefined) showed a GI50 [1] of 134 nM, a TGI [1] of 349 nM and a GI50 [2] of 324 nM. The TGI [2] was 821 nM, the GI50 [3] was 56.8 nM and the TGI [3] was 209 nM. The GI50 [4] was 149 nM, the TGI [4] was 298 nM and the GI50 [5] was 226 nM. For the same compound, the TGI [5] was 523 nM, the GI50 [6] was 303 nM and the TGI [6] was 922 nM. For the same compound, the GI50 [7] was 225 nM, the TGI [7] was 775 nM and the GI50 [8] was 73.8 nM. The TGI [8] was 286 nM, the GI50 [9] was 209 nM and the TGI [9] was 656 nM. The GI50 [10] was 101 nM, the TGI [10] was 565 nM and the GI50 [11] was 130 nM. It also gave a TGI [11] of 391 nM, a GI50 [12] of 88.6 nM and a TGI [12] of 229 nM. For the same compound, the GI50 [13] was 177 nM, the TGI [13] was 454 nM and the GI50 [14] was 93.4 nM. For the same compound, the TGI [14] was 842 nM, the GI50 [15] was 245 nM and the TGI [15] was 598 nM. For the same compound, the GI50 [16] was 79.5 nM, the TGI [16] was 221 nM and the GI50 [17] was 178 nM. For the same compound, the TGI [17] was 499 nM, the GI50 [18] was 92.3 nM and the TGI [18] was 242 nM. The GI50 [19] was 74.6 nM, the TGI [19] was 193 nM and the GI50 [20] was 164 nM. For the same compound, the TGI [20] was 357 nM, the GI50 [21] was 258 nM and the TGI [21] was 894 nM. For the same compound, the GI50 [22] was 242 nM, the TGI [22] was 671 nM and the GI50 [23] was 166 nM. The TGI [23] was 431 nM, the GI50 [24] was 103 nM and the TGI [24] was 325 nM. The GI50 [25] was 196 nM, the TGI [25] was 532 nM and the GI50 [26] was 153 nM. The TGI [26] was 368 nM, the GI50 [27] was 192 nM and the TGI [27] was 484 nM. It also gave a GI50 [28] of 113 nM, a TGI [28] of 287 nM and a GI50 [29] of 315 nM. It also gave a TGI [29] of 1450 nM, a GI50 [30] of 194 nM and a TGI [30] of 497 nM. For the same compound, the GI50 [31] was 207 nM, the TGI [31] was 630 nM and the GI50 [32] was 181 nM. It also gave a GI50 [33] of 147 nM, a TGI [33] of 433 nM and a GI50 [34] of 241 nM. For the same compound, the TGI [34] was 564 nM, the GI50 [35] was 165 nM and the TGI [35] was 430 nM. It also gave a GI50 [36] of 159 nM, a TGI [36] of 1870 nM and a GI50 [37] of 163 nM. It also gave a TGI [37] of 402 nM, a GI50 [38] of 184 nM and a TGI [38] of 660 nM. For the same compound, the GI50 [39] was 199 nM, the TGI [39] was 685 nM and the GI50 [40] was 158 nM. The TGI [40] was 389 nM, the GI50 [41] was 215 nM and the TGI [41] was 606 nM. For the same compound, the GI50 [42] was 233 nM, the TGI [42] was 2470 nM and the GI50 [43] was 495 nM. For the same compound, the TGI [43] was 2140 nM, the GI50 [44] was 473 nM and the TGI [44] was 1130 nM. For the same compound, the GI50 [45] was 110 nM, the TGI [45] was 300 nM and the GI50 [46] was 149 nM. It also gave a TGI [46] of 374 nM, a GI50 [47] of 214 nM and a TGI [47] of 465 nM. For the same compound, the GI50 [48] was 62.8 nM, the TGI [48] was 238 nM and the GI50 [49] was 95.2 nM. It also gave a TGI [49] of 272 nM, a GI50 [50] of 200 nM and a TGI [50] of 529 nM. It also gave a GI50 [51] of 333 nM, a TGI [51] of 855 nM and a GI50 [52] of 120 nM. The TGI [52] was 272 nM, the GI50 [53] was 1510 nM and the TGI [53] was 3540 nM. For the same compound, the GI50 [54] was 175 nM, the TGI [54] was 353 nM and the GI50 [55] was 200 nM. The TGI [55] was 746 nM.
